According to patent publication US11214594B2, “Antimicrobial peptide having synergistic antibacterial effect with antibiotics on multidrug resistant bacteria, and use thereof” (priority 2016, dated 2022):
Values after ≈ are worked out from the molar mass of the structure shown. Where a SMILES comes first, the peptide text is derived from it. [ ]: non-standard residue; d: D form.

What was measured:
E. coli [1] = test: microbe, parasite or virus in culture; format: cell-based, Escherichia coli; details: 16 h
In short: (§1)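 MIC read-out = lowest peptide level with no bacterial proliferation. Strains diluted in MH medium to 2×10^6 CFU; peptide twofold serial dilutions in MH added 1:1 in microtiter wells.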

MDREC 1229 = test: microbe, parasite or virus in culture; format: cell-based, Escherichia coli
In short: as §1

MDREC 1238 = format: cell-based, Escherichia coli
Protocol: (§2) For the antibacterial activity, a minimal inhibitory concentration (MIC) of a peptide in which fungus bodies were not split in an MH medium with sufficient nutrients was measured.
(§3) Specifically, the strains described in the following [Table 2] were purchased and diluted with an MH medium such that the number of bacteria was 2×10^6 colony-forming units (CFUs), 100 μl of each of the diluted strains was aliquoted into a 96-well microtiter plate, and then 100 μl of a peptide solution diluted with the MH medium (solution diluted stepwise at 2: 1) was added to each well.

P. aeruginosa = test: microbe, parasite or virus in culture; format: cell-based, Pseudomonas aeruginosa
In short: as §1

MDRPA 2002 = format: cell-based, Pseudomonas aeruginosa
Protocol: as §2, §3

MDRPA 2003 = format: cell-based, Pseudomonas aeruginosa
Protocol: as §2, §3

MDRAB 12036 = format: cell-based, Acinetobacter baumannii
Protocol: as §2, §3

MDRST 8007 = test: Minimal inhibitory concentration (MIC), single agent; format: cell-based, Salmonella typhimurium; details: agent alone
Protocol: as §2, §3

MDRST 8009 = format: cell-based, Salmonella typhimurium; details: agent alone
Protocol: as §2, §3

B. subtilis = test: microbe, parasite or virus in culture; format: cell-based, Bacillus subtilis
In short: as §1

S. epidermidis = test: microbe, parasite or virus in culture; format: cell-based, Staphylococcus epidermidis
In short: as §1

MRSA 3114 = format: cell-based, Staphylococcus aureus; details: 3114
Protocol: as §2, §3

MRSA 3126 = format: cell-based, Staphylococcus aureus; details: 3126
Protocol: as §2, §3

E. coli [2] = test: MIC of antibiotic during combined treatment with antimicrobial peptide; format: cell-based, Escherichia coli; details: for Antibiotic MIC, Erythromycin / Antibiotic MIC, Linezolid / Antibiotic MIC, Vancomycin: E. coli
In short: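 Antibiotic diluted in MH medium, dispensed per well with peptide; setup repeated with roles reversed; MIC read per combination.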

MDRAB 12035 = test: as above; format: cell-based, Acinetobacter baumannii
Protocol: Specifically, the strains described in [Table 2] were prepared and diluted with an MH medium such that the number of bacteria was 2×10^6 colony-forming units (CFUs) per 1 ml, 100 μl of the diluted strains was each aliquoted into a 96-well microtiter plate, and then 50 μl of a peptide solution diluted with the MH medium from the MIC value (solution diluted stepwise at 2: 1) was added to each well. Thereafter, the MIC value of each mixed solution was determined by diluting the antibiotic solution with the MH medium, adding 50 μl of the diluted solution to each well, and performing an experiment even under a reversed condition.

[3] = peptide treatment concentration 1 μg/ml
[4] = peptide treatment concentration 2 μg/ml
[5] = peptide treatment concentration 4 μg/ml
[6] = peptide treatment concentration 6 μg/ml

CC[C@H](C)[C@H](NC(=O)[C@H](CCCCN)NC(=O)[C@H](Cc1c[nH]c2ccccc12)NC(=O)[C@@H](N)CCCNC(=N)N)C(=O)N[C@@H](Cc1ccccc1)C(=O)N[C@@H](CCCCN)C(=O)N[C@@H](CCCCN)C(=O)N[C@H](C(=O)N[C@H](CC(C)C)C(=O)N[C@@H](CCCCN)C(=O)N[C@@H](CC(C)C)C(=O)N[C@@H](CC(C)C)C(=O)N[C@@H](Cc1c[nH]cn1)C(=O)N[C@@H](CCC(=O)O)C(=O)N[C@@H](C)C(=O)N[C@@H](CCCCN)C(=O)N[C@@H](CCCCN)C(=O)N[C@@H](Cc1c[nH]c2ccccc12)C(N)=O)[C@@H](C)CC [PapMA-24, RWK IFK KIl KLL HEA KKW-NH2] (H-RWKIFKKI[dL]KLLHEAKKW-NH2; N-terminus assumed)
Minimal inhibitory concentration MIC (E. coli [1]): 32 µg/mL (≈ 13.5 µM)
Minimal inhibitory concentration MIC (MDREC 1229): 32 µg/mL (≈ 13.5 µM)
Peptide MIC, peptide alone (MDREC 1229): 32 µg/mL
Minimal inhibitory concentration MIC (MDREC 1238): 32 µg/mL (≈ 13.5 µM)
Minimal inhibitory concentration MIC (P. aeruginosa): 64 µg/mL (≈ 27.1 µM)
Minimal inhibitory concentration MIC (MDRPA 2002): 64 µg/mL (≈ 27.1 µM)
Minimal inhibitory concentration MIC (MDRPA 2003): 64 µg/mL (≈ 27.1 µM)
Minimal inhibitory concentration MIC (MDRAB 12036): 32 µg/mL (≈ 13.5 µM)
Minimal inhibitory concentration MIC (MDRST 8007): 32 µg/mL (≈ 13.5 µM)
Minimal inhibitory concentration MIC (MDRST 8009): 32 µg/mL (≈ 13.5 µM)
Minimal inhibitory concentration MIC (B. subtilis): >128 µg/mL
Minimal inhibitory concentration MIC (S. epidermidis): >128 µg/mL
Minimal inhibitory concentration MIC (MRSA 3114): >128 µg/mL
Minimal inhibitory concentration MIC (MRSA 3126): >128 µg/mL
Synergistic effect of antibacterial activity with existing antibiotics compared with PapMA-1 (E. coli [2]; E. coli and MDREC1229): level similar to that of the PapMA-1 peptide
Antibiotic MIC, Erythromycin (E. coli [2]; erythromycin combined with peptide at 1 μg/ml): 64 µg/mL
Antibiotic MIC, Erythromycin (E. coli [2]; erythromycin combined with peptide at 2 μg/ml): 32 µg/mL
Antibiotic MIC, Erythromycin (E. coli [2]; erythromycin combined with peptide at 4 μg/ml): 16 µg/mL
Antibiotic MIC, Erythromycin (E. coli [2]; erythromycin combined with peptide at 6 μg/ml): 4 µg/mL
Antibiotic MIC, Erythromycin (E. coli [2]; erythromycin combined with peptide at 8 μg/ml): 2 µg/mL
Antibiotic MIC, Erythromycin (E. coli [2]; erythromycin combined with peptide at 16 μg/ml): 0.5 µg/mL
Antibiotic MIC, Erythromycin (E. coli [2]; erythromycin combined with peptide at 32 μg/ml): 0 µg/mL
Antibiotic MIC, Erythromycin (E. coli [2]; erythromycin combined with peptide at 64 μg/ml): 0 µg/mL
Antibiotic MIC, Linezolid (E. coli [2]; linezolid combined with peptide at 1 μg/ml): >128 µg/mL
Antibiotic MIC, Linezolid (E. coli [2]; linezolid combined with peptide at 2 μg/ml): 128 µg/mL
Antibiotic MIC, Linezolid (E. coli [2]; linezolid combined with peptide at 4 μg/ml): 64 µg/mL
Antibiotic MIC, Linezolid (E. coli [2]; linezolid combined with peptide at 6 μg/ml): 32 µg/mL
Antibiotic MIC, Linezolid (E. coli [2]; linezolid combined with peptide at 8 μg/ml): 32 µg/mL
Antibiotic MIC, Linezolid (E. coli [2]; linezolid combined with peptide at 16 μg/ml): 8 µg/mL
Antibiotic MIC, Linezolid (E. coli [2]; linezolid combined with peptide at 32 μg/ml): 0 µg/mL
Antibiotic MIC, Linezolid (E. coli [2]; linezolid combined with peptide at 64 μg/ml): 0 µg/mL
Antibiotic MIC, Vancomycin (E. coli [2]; vancomycin combined with peptide at 1 μg/ml): >128 µg/mL
Antibiotic MIC, Vancomycin (E. coli [2]; vancomycin combined with peptide at 2 μg/ml): >128 µg/mL
Antibiotic MIC, Vancomycin (E. coli [2]; vancomycin combined with peptide at 4 μg/ml): 128 µg/mL
Antibiotic MIC, Vancomycin (E. coli [2]; vancomycin combined with peptide at 6 μg/ml): 32 µg/mL
Antibiotic MIC, Vancomycin (E. coli [2]; vancomycin combined with peptide at 8 μg/ml): 16 µg/mL
Antibiotic MIC, Vancomycin (E. coli [2]; vancomycin combined with peptide at 16 μg/ml): 8 µg/mL
Antibiotic MIC, Vancomycin (E. coli [2]; vancomycin combined with peptide at 32 μg/ml): 0 µg/mL
Antibiotic MIC, Vancomycin (E. coli [2]; vancomycin combined with peptide at 64 μg/ml): 0 µg/mL
Erythromycin MIC during combined treatment with peptide (MDRAB 12035; [3]): 32 µg/mL
Linezolid MIC during combined treatment with peptide (MDRAB 12035; [3]): >128 µg/mL
Vancomycin MIC during combined treatment with peptide (MDRAB 12035; [3]): >128 µg/mL
Erythromycin MIC during combined treatment with peptide (MDRAB 12035; [4]): 32 µg/mL
Linezolid MIC during combined treatment with peptide (MDRAB 12035; [4]): >128 µg/mL
Vancomycin MIC during combined treatment with peptide (MDRAB 12035; [4]): >128 µg/mL
Erythromycin MIC during combined treatment with peptide (MDRAB 12035; [5]): 16 µg/mL
Linezolid MIC during combined treatment with peptide (MDRAB 12035; [5]): 64 µg/mL
Vancomycin MIC during combined treatment with peptide (MDRAB 12035; [5]): 64 µg/mL
Erythromycin MIC during combined treatment with peptide (MDRAB 12035; [6]): 2 µg/mL
Linezolid MIC during combined treatment with peptide (MDRAB 12035; [6]): 16 µg/mL
Vancomycin MIC during combined treatment with peptide (MDRAB 12035; [6]): 32 µg/mL
